Experimental data reported in the supplement of paper PMC10307832.

Assays:
Experiment in all cases: relative viability (nuclei count vs DMSO), 5 days (fraction); higher = more cells survive
Trametinib + Pictilisib = compound: CC(=O)Nc1cccc(-n2c(=O)n(C3CC3)c(=O)c3c(Nc4ccc(I)cc4F)n(C)c(=O)c(C)c32)c1 [Trametinib] + CS(=O)(=O)N1CCN(Cc2cc3nc(-c4cccc5[nH]ncc45)nc(N4CCOCC4)c3s2)CC1 [Pictilisib] (partner 1 µM)
Outline: (§1)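 Each reported value is a median over duplicate plates. It expresses relative viability: treated-well nuclei count divided by vehicle-well nuclei count. Lung cancer cell lines in 1536-well plates were dosed by pin tool a day after seeding, alone with one drug or with a fixed anchor-drug dose plus five library-drug doses (not always all listed) in √10 steps, and nuclei were counted after 5 days.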

Trametinib + Pemetrexed = compound: CC(=O)Nc1cccc(-n2c(=O)n(C3CC3)c(=O)c3c(Nc4ccc(I)cc4F)n(C)c(=O)c(C)c32)c1 [Trametinib] + Nc1nc2[nH]cc(CCc3ccc(C(=O)N[C@@H](CCC(=O)O)C(=O)O)cc3)c2c(=O)[nH]1 [Pemetrexed] (partner 0.2 µM)
Outline: as §1

[1] = compound: CN1C=C(C2=CC=CC=C21)/C=C\3/C4=C(C=CC=N4)NC3=O + COc1cccc2cc(-c3nc([C@H]4CC[C@H](C(=O)O)CC4)n4ncnc(N)c34)[nH]c12 [OSI-027] (partner 0.5 µM)
Outline: as §1

[2] = compound: CN1C=C(C2=CC=CC=C21)/C=C\3/C4=C(C=CC=N4)NC3=O + N=C(N)NC(=N)NCCc1ccccc1 [Phenformin] (partner 250 µM)
Outline: as §1

HCC-366
relative viability (Trametinib + Pictilisib; first compound 0.0025 µM): 0.09
relative viability (Trametinib + Pictilisib; first compound 0.007906 µM): 0.138
relative viability (Trametinib + Pictilisib; first compound 0.025 µM): 0.102
relative viability (Trametinib + Pictilisib; first compound 0.07906 µM): 0.1
relative viability (Trametinib + Pictilisib; first compound 0.25 µM): 0.0818
relative viability (Trametinib + Pemetrexed; first compound 0.0025 µM): 0.24
relative viability (Trametinib + Pemetrexed; first compound 0.007906 µM): 0.213
relative viability (Trametinib + Pemetrexed; first compound 0.025 µM): 0.236
relative viability (Trametinib + Pemetrexed; first compound 0.07906 µM): 0.188
relative viability (Trametinib + Pemetrexed; first compound 0.25 µM): 0.169
relative viability ([1]; first compound 0.02 µM): 0.678
relative viability ([1]; first compound 0.06325 µM): 0.89
relative viability ([1]; first compound 0.2 µM): 0.52
relative viability ([1]; first compound 0.6325 µM): 0.852
relative viability ([1]; first compound 2 µM): 0.75
relative viability ([2]; first compound 0.02 µM): 0.578
relative viability ([2]; first compound 0.06325 µM): 0.641
relative viability ([2]; first compound 0.2 µM): 0.602
relative viability ([2]; first compound 0.6325 µM): 0.664
relative viability ([2]; first compound 2 µM): 0.667

BEN
relative viability (Trametinib + Pictilisib; first compound 0.0025 µM): 0.487
relative viability (Trametinib + Pictilisib; first compound 0.007906 µM): 0.472
relative viability (Trametinib + Pictilisib; first compound 0.07906 µM): 0.419
relative viability (Trametinib + Pictilisib; first compound 0.25 µM): 0.426
relative viability (Trametinib + Pemetrexed; first compound 0.0025 µM): 0.706
relative viability (Trametinib + Pemetrexed; first compound 0.007906 µM): 0.752
relative viability (Trametinib + Pemetrexed; first compound 0.025 µM): 0.511
relative viability (Trametinib + Pemetrexed; first compound 0.07906 µM): 0.45
relative viability (Trametinib + Pemetrexed; first compound 0.25 µM): 0.646
relative viability ([1]; first compound 0.02 µM): 0.282
relative viability ([1]; first compound 0.06325 µM): 0.29
relative viability ([1]; first compound 0.6325 µM): 0.403
relative viability ([1]; first compound 2 µM): 0.276
relative viability ([2]; first compound 0.02 µM): 0.264
relative viability ([2]; first compound 0.06325 µM): 0.29
relative viability ([2]; first compound 0.6325 µM): 0.255
relative viability ([2]; first compound 2 µM): 0.242

NCI-H2347
relative viability (Trametinib + Pictilisib; first compound 0.0025 µM): 0.452
relative viability (Trametinib + Pictilisib; first compound 0.007906 µM): 0.301
relative viability (Trametinib + Pictilisib; first compound 0.025 µM): 0.221
relative viability (Trametinib + Pictilisib; first compound 0.07906 µM): 0.229
relative viability (Trametinib + Pictilisib; first compound 0.25 µM): 0.272
relative viability (Trametinib + Pemetrexed; first compound 0.0025 µM): 0.425
relative viability (Trametinib + Pemetrexed; first compound 0.007906 µM): 0.44
relative viability (Trametinib + Pemetrexed; first compound 0.025 µM): 0.362
relative viability (Trametinib + Pemetrexed; first compound 0.07906 µM): 0.302
relative viability (Trametinib + Pemetrexed; first compound 0.25 µM): 0.337
relative viability ([1]; first compound 0.06325 µM): 0.347
relative viability ([1]; first compound 0.2 µM): 0.483
relative viability ([1]; first compound 0.6325 µM): 0.552
relative viability ([1]; first compound 2 µM): 0.378
relative viability ([2]; first compound 0.06325 µM): 0.374
relative viability ([2]; first compound 0.2 µM): 0.297
relative viability ([2]; first compound 0.6325 µM): 0.318
relative viability ([2]; first compound 2 µM): 0.46

LCLC-103H
relative viability (Trametinib + Pictilisib; first compound 0.0025 µM): 0.641
relative viability (Trametinib + Pictilisib; first compound 0.007906 µM): 0.547
relative viability (Trametinib + Pictilisib; first compound 0.025 µM): 0.451
relative viability (Trametinib + Pictilisib; first compound 0.07906 µM): 0.458
relative viability (Trametinib + Pictilisib; first compound 0.25 µM): 0.406
relative viability (Trametinib + Pemetrexed; first compound 0.0025 µM): 0.482
relative viability (Trametinib + Pemetrexed; first compound 0.007906 µM): 0.495
relative viability (Trametinib + Pemetrexed; first compound 0.025 µM): 0.523
relative viability (Trametinib + Pemetrexed; first compound 0.07906 µM): 0.5
relative viability (Trametinib + Pemetrexed; first compound 0.25 µM): 0.519
relative viability ([1]; first compound 0.02 µM): 0.402
relative viability ([1]; first compound 0.06325 µM): 0.416
relative viability ([1]; first compound 0.2 µM): 0.494
relative viability ([1]; first compound 0.6325 µM): 0.509
relative viability ([1]; first compound 2 µM): 0.461
relative viability ([2]; first compound 0.02 µM): 0.303
relative viability ([2]; first compound 0.06325 µM): 0.256
relative viability ([2]; first compound 0.2 µM): 0.317
relative viability ([2]; first compound 0.6325 µM): 0.322
relative viability ([2]; first compound 2 µM): 0.331

NCI-H650
relative viability (Trametinib + Pictilisib; first compound 0.0025 µM): 1.05
relative viability (Trametinib + Pictilisib; first compound 0.007906 µM): 1.18
relative viability (Trametinib + Pictilisib; first compound 0.025 µM): 0.998
relative viability (Trametinib + Pictilisib; first compound 0.07906 µM): 0.919
relative viability (Trametinib + Pictilisib; first compound 0.25 µM): 0.565
relative viability (Trametinib + Pemetrexed; first compound 0.0025 µM): 1.12
relative viability (Trametinib + Pemetrexed; first compound 0.007906 µM): 1.31
relative viability (Trametinib + Pemetrexed; first compound 0.025 µM): 1.01
relative viability (Trametinib + Pemetrexed; first compound 0.07906 µM): 1.06
relative viability (Trametinib + Pemetrexed; first compound 0.25 µM): 0.884
relative viability ([1]; first compound 0.02 µM): 0.628
relative viability ([1]; first compound 0.06325 µM): 0.515
relative viability ([1]; first compound 0.6325 µM): 0.529
relative viability ([1]; first compound 2 µM): 0.506
relative viability ([2]; first compound 0.02 µM): 0.474
relative viability ([2]; first compound 0.06325 µM): 0.481
relative viability ([2]; first compound 0.6325 µM): 0.421
relative viability ([2]; first compound 2 µM): 0.404

NCI-H1975
relative viability (Trametinib + Pictilisib; first compound 0.0025 µM): 0.252
relative viability (Trametinib + Pictilisib; first compound 0.007906 µM): 0.199
relative viability (Trametinib + Pictilisib; first compound 0.025 µM): 0.137
relative viability (Trametinib + Pictilisib; first compound 0.07906 µM): 0.162
relative viability (Trametinib + Pictilisib; first compound 0.25 µM): 0.179
relative viability (Trametinib + Pemetrexed; first compound 0.0025 µM): 0.326
relative viability (Trametinib + Pemetrexed; first compound 0.007906 µM): 0.284
relative viability (Trametinib + Pemetrexed; first compound 0.025 µM): 0.246
relative viability (Trametinib + Pemetrexed; first compound 0.07906 µM): 0.249
relative viability (Trametinib + Pemetrexed; first compound 0.25 µM): 0.226
relative viability ([1]; first compound 0.02 µM): 0.698
relative viability ([1]; first compound 0.06325 µM): 0.739
relative viability ([1]; first compound 0.2 µM): 0.828
relative viability ([1]; first compound 0.6325 µM): 0.646
relative viability ([1]; first compound 2 µM): 0.449
relative viability ([2]; first compound 0.02 µM): 0.392
relative viability ([2]; first compound 0.06325 µM): 0.378
relative viability ([2]; first compound 0.2 µM): 0.318
relative viability ([2]; first compound 0.6325 µM): 0.389
relative viability ([2]; first compound 2 µM): 0.402

NCI-H2126
relative viability (Trametinib + Pictilisib; first compound 0.0025 µM): 0.456
relative viability (Trametinib + Pictilisib; first compound 0.007906 µM): 0.413
relative viability (Trametinib + Pictilisib; first compound 0.025 µM): 0.362
relative viability (Trametinib + Pictilisib; first compound 0.07906 µM): 0.372
relative viability (Trametinib + Pictilisib; first compound 0.25 µM): 0.383
relative viability (Trametinib + Pemetrexed; first compound 0.0025 µM): 0.647
relative viability (Trametinib + Pemetrexed; first compound 0.007906 µM): 0.553
relative viability (Trametinib + Pemetrexed; first compound 0.025 µM): 0.464
relative viability (Trametinib + Pemetrexed; first compound 0.07906 µM): 0.538
relative viability (Trametinib + Pemetrexed; first compound 0.25 µM): 0.428
relative viability ([1]; first compound 0.02 µM): 0.605
relative viability ([1]; first compound 0.06325 µM): 0.657
relative viability ([1]; first compound 0.2 µM): 0.6
relative viability ([1]; first compound 0.6325 µM): 0.697
relative viability ([1]; first compound 2 µM): 0.612
relative viability ([2]; first compound 0.02 µM): 0.506
relative viability ([2]; first compound 0.06325 µM): 0.508
relative viability ([2]; first compound 0.2 µM): 0.507
relative viability ([2]; first compound 0.6325 µM): 0.519
relative viability ([2]; first compound 2 µM): 0.505

NCI-H2087
relative viability (Trametinib + Pictilisib; first compound 0.0025 µM): 0.846
relative viability (Trametinib + Pictilisib; first compound 0.007906 µM): 0.344
relative viability (Trametinib + Pictilisib; first compound 0.025 µM): 0.26
relative viability (Trametinib + Pictilisib; first compound 0.07906 µM): 0.237
relative viability (Trametinib + Pictilisib; first compound 0.25 µM): 0.382
relative viability (Trametinib + Pemetrexed; first compound 0.0025 µM): 0.554
relative viability (Trametinib + Pemetrexed; first compound 0.007906 µM): 0.642
relative viability (Trametinib + Pemetrexed; first compound 0.025 µM): 0.468
relative viability (Trametinib + Pemetrexed; first compound 0.07906 µM): 0.179
relative viability (Trametinib + Pemetrexed; first compound 0.25 µM): 0.281
relative viability ([1]; first compound 0.02 µM): 0.75
relative viability ([1]; first compound 0.06325 µM): 0.403
relative viability ([1]; first compound 0.2 µM): 0.47
relative viability ([1]; first compound 0.6325 µM): 0.642
relative viability ([1]; first compound 2 µM): 0.587
relative viability ([2]; first compound 0.02 µM): 0.488
relative viability ([2]; first compound 0.06325 µM): 0.431
relative viability ([2]; first compound 0.2 µM): 0.387
relative viability ([2]; first compound 0.6325 µM): 0.453
relative viability ([2]; first compound 2 µM): 0.369
